One experiment concerns U2932 DLBCL cell line. The experiment can be described thus: Growth/viability of U2932 cells with doxycycline-inducible shRNA system targeting OR13A1. The format is cell-based. The source says: • Figure 1. Expression of OR13A1 across lymphoma cell lines as measured by RNA-Seq. A) Heatmap is based on log2 CPM (counts per million). Scale ranges from low (white) to high expression (black). Each horizontal represents the value for one cell line. GCB DLBCL, diffuse large B-cell lymphoma of the germinal center B-cell-type; ABC DLBCL, diffuse large B-cell lymphoma of the activated B-cell-like; MCL, mantle cell lymphoma; MZL, marginal zone lymphoma; CLL, chronic lymphocytic leukemia; PMBCL, primary mediastinal large B-cell lymphoma; BL, Burkitt lymphoma. B) OR13A1 expression level by cell of origin in DLBCL cell lines, the expression was higher in cells derived from germinal center (GC) B-cell type (GCB) than activated B cell like (ABC) DLBCL (P value = 0.03). • Figure 2. OR13A1 silencing is associated with reduction in cell viability of DLBCL cells. Left panel, real-time PCR showing reduction of OR13A1 72h after siRNA treatment. Right panel, Reduction of cell viability, measured with MTT, in DLBCL cells after gene silencing. • Figure 3. Homology model of OR13A1 with two ligands. A) cyclohexanone docked onto the orthosteric binding site. B) tyramine docked onto the orthosteric binding site. Residues identified in the model to interact with the tyramine, potentially relevant for the receptor activation, are shown in sticks, D221 and T297. • Figure 4. […] Experiments were done using U2932 cells with the doxycycline-inducible shRNA system, exposed or not to cyclohexanone (25µM). The red arrow indicates the addition of cyclohexanone. CH, cyclohexanone; sh1, doxycycline-inducible shRNA targeting OR13A1; shCNT, scramble doxycycline-inducible shRNA.
Cellular experiments followed with cyclohexanone and, among the predicted ligands, tyramine using the U2932 DLBCL cell line with the doxycycline-inducible shRNA system.

Another experiment concerns Olfr1484. Conditions: experimentally demonstrated, reference [52]; cited from earlier work.
The target of the next experiment is T1, Olfr211 (Mus musculus, UniProt Q8VGH2).
T1 sequence (Q8VGH2 1-309): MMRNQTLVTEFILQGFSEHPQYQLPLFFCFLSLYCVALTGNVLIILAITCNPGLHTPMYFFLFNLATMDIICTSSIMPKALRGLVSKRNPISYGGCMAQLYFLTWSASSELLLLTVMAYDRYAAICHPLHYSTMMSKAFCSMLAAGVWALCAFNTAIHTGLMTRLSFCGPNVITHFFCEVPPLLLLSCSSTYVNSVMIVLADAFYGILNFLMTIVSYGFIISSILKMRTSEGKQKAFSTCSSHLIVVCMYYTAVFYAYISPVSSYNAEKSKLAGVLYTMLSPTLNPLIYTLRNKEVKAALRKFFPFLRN
Conditions: experimentally demonstrated, reference [52]; cited from earlier work.

Molecules are shown by their SMILES.

Take `O=C1CCCCC1` [cyclohexanone]: in the experiment on U2932 DLBCL cell line (U2932, in the presence of the GPCR (OR13A1), Figure 4), the lymphoma cell viability entry was “decreased the lymphoma cell viability in the presence”. Further, the “effect on growth of DLBCL cells” value in the experiment on U2932 DLBCL cell line (U2932 cells, cyclohexanone 25µM, absence of OR13A1 (sh1), Figure 4) was “The absence of OR13A1 abrogates the effect”. Besides, in the experiment with U2932 DLBCL cell line (U2932 cells, cyclohexanone 25µM, Figure 4), the “growth of DLBCL cells” value is “reduces the growth of DLBCL cells”. In the experiment on Olfr1484, the “ligand of Olfr1484” value is on record as “ligand”. On Olfr211, the “ligand of Olfr211” value was “ligand”.

With `NCCc1ccc(O)cc1` [tyramine], in the experiment with U2932 DLBCL cell line (U2932 DLBCL cell line, doxycycline-inducible shRNA system), the “lymphoma cell line growth” value is reported as “increased lymphoma cell line growth”.

Values taken from patent EP4241766A1, “USE OF OLFACTORY RECEPTOR OR13A1 LIGANDS IN THE TREATMENT OF LYMPHOMAS” (Fondazione Per L'Istituto Oncologico Di Ricerca (IOR), priority 2022, dated 2023).
